Series [1] in a line: Solubility in 20% hydroxyl propyl beta-cyclodextrin. Particulars: 20% hydroxypropyl beta-cyclodextrin solution. Format: physicochemical.
A further series relates to HeLa. Description: cells. The conditions noted are these: Homo sapiens.
Another series has as its system A-375. Description: cells. The conditions noted are these: Homo sapiens.
Series [2] in a line: Inhibition of Aurora2. Further details: species or system Homo sapiens.
The target of series [3] is Vascular endothelial growth factor receptor 2 (Homo sapiens, UniProt P35968). Description: Inhibition of VEGFR2.
In a further series the test system is HCT-116. Description: cells. The conditions noted are these: Homo sapiens.
The nature of series [4]: Half life in rat at 2 mg/kg, iv. Format: ADME, organism-based. The arrangement: dose 2 mg/kg, route intravenous. Particulars: in vivo.
The nature of series [5]: AUC in rat at 10 mg/kg, po. It counts as ADME, organism-based. Further details: dose 10 mg/kg, route oral. Particulars: plasma.
A short description of series [6]: Cmax in rat at 10 mg/kg, po. It counts as ADME, organism-based. The arrangement: dose 10 mg/kg, route oral. Particulars: in vivo.
Series [7] in a line: Cmax in rat at 2 mg/kg, iv. Format: ADME, organism-based. Further details: dose 2 mg/kg, route intravenous. Particulars: in vivo.
The subject of a further series is Rattus norvegicus. Description: (§1) AUC in rat at 2 mg/kg, iv. Format: ADME, organism-based, Plasma. The arrangement: dose 2 mg/kg, route intravenous. The conditions noted are these: in vivo.
Series [8] can be described thus: Half life in rat at 10 mg/kg, po. It counts as ADME, organism-based. The arrangement: dose 10 mg/kg, route oral. The conditions noted are these: in vivo.
A short description of series [9]: Oral bioavailability in rat at 10 mg/kg. Particulars: in vivo. It counts as ADME, organism-based.
For series [10], the target named is Receptor tyrosine-protein kinase erbB-2 (Homo sapiens, UniProt P04626). Kind of series: Inhibition of HER2.
The target of series [11] is Proto-oncogene tyrosine-protein kinase receptor Ret (Homo sapiens, UniProt P07949). Kind of series: Inhibition of RET.
In series [12] the target is Cyclin-dependent kinase 1 (Homo sapiens, UniProt P06493). Description: Inhibition of CDK1.
Series [13] is described as follows: as §1. It counts as ADME, organism-based, Plasma. Particulars: plasma. The arrangement: dose 2 mg/kg, route intravenous.
A short description of series [14]: Clearance in rat at 2 mg/kg, iv. It counts as ADME, organism-based. Further details: dose 2 mg/kg, route intravenous. Particulars: in vivo.

Consider 27 compounds from ChEMBL document CHEMBL1140014, “Synthesis and evaluation of pyrazolo[3,4-b]pyridine CDK1 inhibitors as anti-tumor agents” (Bioorg Med Chem Lett, 2007).

Values after ≈ are worked out from the molar mass of the structure shown.

Broadly, the solubility is the concentration that dissolves in the medium under given conditions. Low readings indicate little dissolved substance, high ones much dissolved substance. By IC50 is commonly meant the concentration that inhibits the measured activity by half. A lower IC50 goes with inhibition by little substance. As a reminder, the half-life is how long it takes for the measured level to halve. The AUC is the area under the concentration-time curve, a measure of exposure. Lower therefore signals low exposure. What is called Cmax is the peak of the concentration-time curve. The term bioavailability denotes the share of a dose that reaches the circulation, judged against a reference dose that is usually intravenous. Low readings indicate little systemic uptake, high ones much systemic uptake. A word on the clearance: it is the rate of elimination divided by the concentration.

Sequence of Vascular endothelial growth factor receptor 2 (P35968 whole entry): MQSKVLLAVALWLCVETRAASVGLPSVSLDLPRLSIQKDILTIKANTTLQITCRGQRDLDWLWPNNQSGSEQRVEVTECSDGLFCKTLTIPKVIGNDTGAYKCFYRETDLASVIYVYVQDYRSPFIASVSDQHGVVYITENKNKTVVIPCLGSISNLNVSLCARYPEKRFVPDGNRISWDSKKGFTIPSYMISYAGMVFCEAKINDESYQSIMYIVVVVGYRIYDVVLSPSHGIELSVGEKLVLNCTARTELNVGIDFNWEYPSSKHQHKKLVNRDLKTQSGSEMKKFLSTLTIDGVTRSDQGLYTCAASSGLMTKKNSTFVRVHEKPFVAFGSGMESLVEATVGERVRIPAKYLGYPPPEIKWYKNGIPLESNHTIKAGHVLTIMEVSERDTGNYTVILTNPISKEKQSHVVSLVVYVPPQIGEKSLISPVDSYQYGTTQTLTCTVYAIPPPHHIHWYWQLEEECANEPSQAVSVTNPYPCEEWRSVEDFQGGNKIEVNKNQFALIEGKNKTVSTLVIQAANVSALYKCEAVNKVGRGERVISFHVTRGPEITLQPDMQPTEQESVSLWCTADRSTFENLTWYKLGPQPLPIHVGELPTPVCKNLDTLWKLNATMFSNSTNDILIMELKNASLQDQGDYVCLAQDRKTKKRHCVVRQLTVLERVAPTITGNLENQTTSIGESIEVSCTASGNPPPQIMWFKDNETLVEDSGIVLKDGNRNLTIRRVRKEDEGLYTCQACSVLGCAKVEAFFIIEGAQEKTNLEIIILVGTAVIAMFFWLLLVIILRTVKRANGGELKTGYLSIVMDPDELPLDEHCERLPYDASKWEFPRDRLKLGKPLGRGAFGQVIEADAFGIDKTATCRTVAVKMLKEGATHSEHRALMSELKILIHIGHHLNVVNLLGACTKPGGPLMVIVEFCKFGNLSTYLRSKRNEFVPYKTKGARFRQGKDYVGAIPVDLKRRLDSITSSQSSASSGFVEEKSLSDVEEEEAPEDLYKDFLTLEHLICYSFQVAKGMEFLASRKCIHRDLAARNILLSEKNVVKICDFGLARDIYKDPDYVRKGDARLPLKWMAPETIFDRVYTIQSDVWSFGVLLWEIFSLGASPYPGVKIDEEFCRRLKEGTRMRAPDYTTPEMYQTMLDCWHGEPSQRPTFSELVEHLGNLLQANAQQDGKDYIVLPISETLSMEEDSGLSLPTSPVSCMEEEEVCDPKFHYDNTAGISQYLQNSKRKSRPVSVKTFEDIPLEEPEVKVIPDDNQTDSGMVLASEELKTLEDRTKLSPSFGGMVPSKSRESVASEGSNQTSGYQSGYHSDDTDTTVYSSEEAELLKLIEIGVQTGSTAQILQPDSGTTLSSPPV
Sequence of Receptor tyrosine-protein kinase erbB-2 (P04626 whole entry): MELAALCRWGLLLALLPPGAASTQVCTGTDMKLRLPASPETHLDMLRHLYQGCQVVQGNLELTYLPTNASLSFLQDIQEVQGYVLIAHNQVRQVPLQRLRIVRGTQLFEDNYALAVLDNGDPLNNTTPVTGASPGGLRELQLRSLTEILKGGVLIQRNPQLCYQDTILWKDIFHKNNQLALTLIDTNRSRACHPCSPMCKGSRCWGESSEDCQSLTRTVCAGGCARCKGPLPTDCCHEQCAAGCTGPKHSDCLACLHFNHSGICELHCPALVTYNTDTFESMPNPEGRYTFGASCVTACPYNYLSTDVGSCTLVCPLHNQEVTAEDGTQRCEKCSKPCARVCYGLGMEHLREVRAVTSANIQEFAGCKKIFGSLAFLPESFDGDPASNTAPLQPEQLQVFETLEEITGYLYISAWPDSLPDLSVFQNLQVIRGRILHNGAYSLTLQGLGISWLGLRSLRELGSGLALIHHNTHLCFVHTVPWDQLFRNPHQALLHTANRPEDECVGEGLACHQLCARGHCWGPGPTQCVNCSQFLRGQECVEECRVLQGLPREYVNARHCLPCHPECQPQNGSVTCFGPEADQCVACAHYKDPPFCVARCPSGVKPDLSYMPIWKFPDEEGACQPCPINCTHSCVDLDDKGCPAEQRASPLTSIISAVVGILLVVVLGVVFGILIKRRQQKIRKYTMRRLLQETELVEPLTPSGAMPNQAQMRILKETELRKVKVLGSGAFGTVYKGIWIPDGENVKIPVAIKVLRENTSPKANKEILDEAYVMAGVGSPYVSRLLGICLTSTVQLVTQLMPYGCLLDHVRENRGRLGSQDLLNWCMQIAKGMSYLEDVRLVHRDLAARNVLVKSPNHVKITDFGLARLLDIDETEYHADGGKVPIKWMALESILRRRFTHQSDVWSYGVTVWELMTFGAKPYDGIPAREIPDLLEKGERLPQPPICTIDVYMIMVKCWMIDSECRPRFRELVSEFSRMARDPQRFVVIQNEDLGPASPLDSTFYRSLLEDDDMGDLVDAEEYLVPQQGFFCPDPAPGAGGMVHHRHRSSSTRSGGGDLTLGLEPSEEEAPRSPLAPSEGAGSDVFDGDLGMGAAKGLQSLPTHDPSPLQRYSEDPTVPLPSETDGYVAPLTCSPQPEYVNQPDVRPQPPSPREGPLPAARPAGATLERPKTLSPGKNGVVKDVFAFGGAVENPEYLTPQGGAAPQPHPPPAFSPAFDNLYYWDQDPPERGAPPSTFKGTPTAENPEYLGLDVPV
Sequence of Cyclin-dependent kinase 1 (P06493 whole entry): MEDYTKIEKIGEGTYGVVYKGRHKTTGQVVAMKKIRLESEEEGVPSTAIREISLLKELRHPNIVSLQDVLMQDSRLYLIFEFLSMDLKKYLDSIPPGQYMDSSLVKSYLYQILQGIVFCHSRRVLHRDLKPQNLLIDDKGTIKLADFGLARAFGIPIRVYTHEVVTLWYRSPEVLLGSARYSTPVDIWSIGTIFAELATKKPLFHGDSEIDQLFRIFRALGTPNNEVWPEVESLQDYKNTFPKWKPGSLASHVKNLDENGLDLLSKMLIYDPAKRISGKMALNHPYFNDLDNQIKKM
Sequence of Proto-oncogene tyrosine-protein kinase receptor Ret (P07949 whole entry): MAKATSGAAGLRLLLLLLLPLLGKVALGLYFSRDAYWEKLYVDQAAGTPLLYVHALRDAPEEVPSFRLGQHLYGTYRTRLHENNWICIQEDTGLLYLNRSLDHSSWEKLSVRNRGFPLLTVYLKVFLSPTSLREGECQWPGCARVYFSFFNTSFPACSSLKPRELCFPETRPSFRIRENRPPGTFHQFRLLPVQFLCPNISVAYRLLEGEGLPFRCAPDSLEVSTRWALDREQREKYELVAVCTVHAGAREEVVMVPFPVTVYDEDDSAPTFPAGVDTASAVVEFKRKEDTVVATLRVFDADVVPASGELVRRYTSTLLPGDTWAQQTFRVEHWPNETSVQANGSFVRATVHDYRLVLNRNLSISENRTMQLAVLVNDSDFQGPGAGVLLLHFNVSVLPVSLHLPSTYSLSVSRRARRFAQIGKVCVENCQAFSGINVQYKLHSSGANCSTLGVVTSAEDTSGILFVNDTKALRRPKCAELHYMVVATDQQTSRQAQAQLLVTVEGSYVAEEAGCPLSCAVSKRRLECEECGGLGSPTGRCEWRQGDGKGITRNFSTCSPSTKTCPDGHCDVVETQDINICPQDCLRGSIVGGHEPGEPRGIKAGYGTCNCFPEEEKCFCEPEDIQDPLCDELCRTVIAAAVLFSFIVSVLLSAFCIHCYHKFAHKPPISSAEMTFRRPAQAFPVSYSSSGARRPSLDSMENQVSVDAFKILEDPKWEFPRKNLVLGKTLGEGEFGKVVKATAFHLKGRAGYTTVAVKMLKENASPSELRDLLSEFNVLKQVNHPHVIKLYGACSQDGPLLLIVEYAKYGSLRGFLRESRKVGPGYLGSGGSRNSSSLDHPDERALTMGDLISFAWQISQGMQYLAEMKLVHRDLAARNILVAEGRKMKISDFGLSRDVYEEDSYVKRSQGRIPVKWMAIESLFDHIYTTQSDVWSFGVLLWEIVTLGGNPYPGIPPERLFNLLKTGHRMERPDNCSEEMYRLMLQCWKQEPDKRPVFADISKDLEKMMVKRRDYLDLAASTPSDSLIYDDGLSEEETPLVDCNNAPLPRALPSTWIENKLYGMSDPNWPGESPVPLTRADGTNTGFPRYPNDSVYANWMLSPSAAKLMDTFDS

Compound `CCNCc1cncc(-c2cnc3[nH]nc(-c4nc5cc(F)c(F)cc5[nH]4)c3c2)c1` came in with a solubility in series [1] of 12.5 mg/mL (≈ 30.8 mM). Besides, the IC50 in the series on HeLa was 140 nM; in the series with A-375, 46 nM; in [2] it was > 1000 nM; in series [3] it was 100 nM; in the series with HCT-116, 95 nM.
Consider `CCNCc1cncc(-c2cnc3n[nH]c(-c4nc5ccc(F)cc5[nH]4)c3c2)c1`, for which the half-life in series [4] is 16.1 h; in [8], 31.3 h. Moreover, the AUC in [5] came to 150 ng·h/mL; in the series with Rattus norvegicus, 372 ng·h/mL. The same compound gave a solubility in [1] of 12.5 mg/mL (≈ 32.3 mM). Moreover, the Cmax stood at 3.8 ng/mL in series [6] and 217 ng/mL in series [7]. Moreover, the IC50 came out at 59 nM in the series with HeLa; 51 nM in the series with A-375; 800 nM in series [2]; 150 nM in series [3]; 94 nM in the series on HCT-116. In series [9], the bioavailability turned out to be 8%.
For the compound `OCc1cccc2[nH]c(-c3n[nH]c4ncc(-c5cncc6ccccc56)cc34)nc12`, the IC50 in the series with HeLa was 1760 nM; in [2], > 10000 nM; in series [10], 240 nM; in [3] it was > 100000 nM; in the series with HCT-116, 890 nM.
Consider `COCc1cccc2[nH]c(-c3n[nH]c4ncc(-c5cncc6ccccc56)cc34)nc12`, for which the IC50 was found to be 15 nM with HeLa; 10 nM with A-375; 320 nM in series [2]; 460 nM in [3]; 10 nM with HCT-116.
For the compound `CC(C)OCc1cccc2[nH]c(-c3n[nH]c4ncc(-c5cncc6ccccc56)cc34)nc12`, the IC50 with HeLa was 2140 nM; with A-375 it was 910 nM; in series [2], > 1000 nM; in series [3], 100 nM; with HCT-116, 2880 nM.
As to `COCc1cccc2[nH]c(-c3n[nH]c4ncc(-c5cnc6ccccc6c5)cc34)nc12`, the IC50 was 1460 nM in the series with HeLa; 11 nM with A-375; > 100000 nM in series [2]; > 100000 nM in series [10]; > 100000 nM in series [3]; > 100000 nM in [11].
Turning to `COCc1cccc2[nH]c(-c3n[nH]c4ncc(-c5ccncc5)cc34)nc12`, the IC50 with HeLa is 3090 nM; in the series on A-375, 23 nM; in series [2] it was > 1000 nM; in [3] it was 110 nM; in the series with HCT-116 it was 62 nM.
For `COCc1cccc2[nH]c(-c3n[nH]c4ncc(-c5cncnc5)cc34)nc12`, in that order: 9910 nM, 160 nM, 10000 nM, 110 nM and 330 nM.
As to `CCN(CC)Cc1cccc2[nH]c(-c3n[nH]c4ncc(-c5cncc6ccccc56)cc34)nc12`, the IC50 in series [12] was 1.8 nM; with HeLa, 29 nM; in the series with A-375, 47 nM; in series [10], 89 nM; in series [3] it was 1550 nM; with HCT-116, 31 nM.
Regarding `CN1CCN(c2ccc3[nH]c(-c4n[nH]c5ncc(-c6cncc7ccccc67)cc45)nc3c2)CC1`, the figures for the half-life in series [4] and in series [8] were 0.73 h and 3.3 h, respectively. Also, the AUC came to 173 ng·h/mL in series [5] and 959 ng·h/mL in series [13]. The figures for the Cmax in series [6] and in series [7] were 65 ng/mL and 1000 ng/mL, respectively. In addition, the IC50 in [12] turned out to be 14 nM; with HeLa it was 450 nM; in the series with A-375, 160 nM; in the series with HCT-116, 360 nM. In series [9], the bioavailability is 4%. In addition, the clearance in series [14] was 34.9 mL/min/kg.
On to `c1ccc2c(-c3cnc4[nH]nc(-c5nc6cc(N7CCOCC7)ccc6[nH]5)c4c3)cncc2c1`, for which the IC50 in the series with HeLa was 400 nM; with A-375, 300 nM; in series [2] it was 41 nM; in [3] it was 1070 nM; with HCT-116, 370 nM.
As to `O=C(O)c1cccc2[nH]c(-c3n[nH]c4ncc(-c5cncc6ccccc56)cc34)nc12`, the half-inhibitory concentration (IC50) (with HeLa; with A-375; in [2]; in [3]; in the series with HCT-116) was > 10000 nM each time.
Take `CC(C)NC(=O)c1cccc2[nH]c(-c3n[nH]c4ncc(-c5cncc6ccccc56)cc34)nc12`: the IC50 in series [12] is 39 nM; in the series on HeLa, 35 nM; in the series with A-375 it was 65 nM; in [2], > 100 nM; in [3], 380 nM; in the series on HCT-116, 42 nM.
Take `COCc1cccc2[nH]c(-c3n[nH]c4ncc(-c5cncc(CN(C)C)c5)cc34)nc12`: the IC50 in series [12] amounted to 120 nM; in the series with HeLa it was 1230 nM; in the series with A-375, 330 nM; in series [2], 3750 nM; in series [3], 1600 nM; in the series with HCT-116, 190 nM.
Regarding `CCNCc1cncc(-c2cnc3[nH]nc(-c4nc5c(COC)cccc5[nH]4)c3c2)c1C`, the IC50 in series [12] is 110 nM; in series [2], 8020 nM; in series [3] it was 4670 nM.
In the case of `CCN(CC)C(=O)c1cccc2[nH]c(-c3n[nH]c4ncc(-c5cncc6ccccc56)cc34)nc12`, the IC50 in the series with HeLa was 170 nM; in the series with A-375 it was 71 nM; in series [2] it was 1000 nM; in [10], > 10000 nM; in [3], 10000 nM; in the series with HCT-116, 55 nM.
`COCc1cccc2[nH]c(-c3nn(C)c4ncc(-c5cncc6ccccc56)cc34)nc12`: the IC50 in series [12] is 120 nM; with HeLa, 1170 nM; in the series on A-375, 260 nM; in [2], 100000 nM; in series [3] it was > 100000 nM; in the series on HCT-116 it was 200 nM.
`c1ccc2c(-c3cnc4[nH]nc(-c5nc6ccccc6[nH]5)c4c3)cncc2c1`: the IC50 in series [12] was 23 nM; with HeLa, 1700 nM; in the series with A-375, 870 nM; in the series with HCT-116, 550 nM.
In the case of `COC(=O)c1cccc2[nH]c(-c3n[nH]c4ncc(-c5cncc6ccccc56)cc34)nc12`, the IC50 came to 10000 nM in series [12], 10500 nM in the series with HeLa, 7380 nM in the series on A-375 and 100000 nM in [3].
For `CCCNCc1cncc(-c2cnc3[nH]nc(-c4nc5c(COC)cccc5[nH]4)c3c2)c1`, the concentration in solution in series [1] (solubility) came to 12.5 mg/mL (≈ 29.2 mM). The compound also showed an IC50 in series [2] of 3990 nM.
As to `CCNCc1cncc(-c2cnc3[nH]nc(-c4nc5cc(N6CCN(C)CC6)ccc5[nH]4)c3c2)c1`, in series [1], the concentration in solution (solubility) was 12.5 mg/mL (≈ 26.7 mM). Moreover, the IC50 in series [12] came out at 3 nM; in the series on HeLa, 470 nM; with A-375 it was 630 nM; in series [2], 280 nM; in series [3], 25 nM; with HCT-116, 540 nM.
Take `CNCc1cncc(-c2cnc3[nH]nc(-c4nc5c(COC)cccc5[nH]4)c3c2)c1`: the IC50 was 2.5 nM in series [12]; 460 nM in the series on HeLa; 270 nM with A-375; > 1000 nM in series [2]; 640 nM in [3]; 1000 nM in series [11]. In addition, inhibition in the series with HCT-116 was half-maximal at 310 nM (IC50).
Consider `Cc1cccc2[nH]c(-c3n[nH]c4ncc(-c5cncc6ccccc56)cc34)nc12`, for which the IC50 in the series on HeLa came to 3090 nM; in the series on A-375, 1720 nM; in series [10], 1000 nM; in series [3] it was 10000 nM; with HCT-116 it was 1640 nM.
With `COCc1cccc2[nH]c(-c3n[nH]c4ncc(-c5cccnc5)cc34)nc12`, the IC50 in series [12] was 29 nM; in the series with HeLa, 650 nM; with A-375 it was 33 nM; in [2] it was > 1000 nM; in series [3], 160 nM; in the series with HCT-116 it was 19 nM.
In series [1], `CNCc1cncc(-c2cnc3[nH]nc(-c4nc5cc(OC(F)(F)F)ccc5[nH]4)c3c2)c1` yielded a solubility of 12.5 mg/mL (≈ 28.4 mM). Further, the IC50 in series [12] is 9 nM; in the series on A-375, 47 nM; in [2] it was 1000 nM; in series [3] it was > 100 nM; with HCT-116 it was 55 nM.
As to `CC(C)NCc1cccc2[nH]c(-c3n[nH]c4ncc(-c5cncc6ccccc56)cc34)nc12`, the IC50 came to 13 nM in series [12]; 130 nM in the series on HeLa; 140 nM in the series on A-375; 3620 nM in series [2]; 1000 nM in series [3]; 110 nM in the series with HCT-116.
Turning to `CCNCc1cncc(-c2cnc3[nH]nc(-c4nc5cc(OC)ccc5[nH]4)c3c2)c1`, the solubility in series [1] was 12.5 mg/mL (≈ 31.3 mM). The IC50 with HeLa was 32 nM; in the series with A-375, 100 nM; in series [2], 360 nM; in series [3] it was > 100 nM; in series [11], 1000 nM; with HCT-116 it was 49 nM.
